Measured values published in patent US20250296939A1, “BENZOTHIOPHENE COMPOUND” (Kyoto Pharmaceutical Industries, Ltd., priority 2022, published 2025).
pIC50: −log10 of the molar value.

Key:
[1] = target: GST-fused human Keap1 (amino acid residues: 325-642) protein (Homo sapiens (Human), UniProt Q14145); experiment: FP assay (in vitro): inhibition of binding between Nrf2 and Keap1 by fluorescence polarization; settings: 20 nM GST-fused human Keap1, 10 nM FITC-labeled Nrf2 peptide, 2 hr at room temperature
GST-fused human Keap1 (amino acid residues: 325-642) protein, sequence (Q14145 325-624 limits assumed): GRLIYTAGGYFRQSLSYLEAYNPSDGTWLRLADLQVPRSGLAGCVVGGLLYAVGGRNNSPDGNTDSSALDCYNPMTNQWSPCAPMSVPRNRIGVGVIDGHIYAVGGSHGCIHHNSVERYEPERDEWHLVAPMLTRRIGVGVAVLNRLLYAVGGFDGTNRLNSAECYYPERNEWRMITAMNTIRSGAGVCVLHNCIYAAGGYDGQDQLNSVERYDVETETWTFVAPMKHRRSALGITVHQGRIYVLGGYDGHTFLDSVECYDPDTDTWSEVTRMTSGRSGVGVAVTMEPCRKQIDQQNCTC

[2] = test system: NQO1 activity in Hepa1c1c7 cells; experiment: NAD(P)H: quinone oxidoreductase-1 (NQO1) enzyme induction assay (in vitro); type: cell-based, mouse; settings: Mus musculus, Hepa-1c1c7, NQO1 activity upon addition of 400 nM of test compound, about 48 hr, ratio from the base without the compound
In short: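 Mouse Hepa1c1c7 hepatoma cells were treated with 400 nM compound for about 48 h, then lysed with digitonin/EDTA. NQO1 activity was measured as menadione-mediated MTT reduction with a G6P/G6PDH NADPH-regenerating system, stopped with dicoumarol, and read at A610. Values are the activity ratio versus untreated base wells.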

Structure (SMILES): CC[C@H]1Cc2cccnc2CN(Cc2cc([C@@H](CC(=O)O)c3ccc4c(nnn4C)c3C)cc3ccsc23)C1 [Example 69, (3R)-3-(1,4-Dimethyl-1H-benzotriazol-5-yl)-3-(7-{[(6S)-6-ethyl-5,6,7,9-tetrahydro-8H-pyrido[2,3-c]azepin-8-yl]methyl}-1-benzothiophen-5-yl)propanoic acid]
- pIC50 [1]: 7.52 to 8.00
- fold induction at 0.4 µM [2]: > 5

Structure (SMILES): CC[C@H]1Cc2cccnc2CN(Cc2cc([C@H](CC(=O)O)c3ccc4c(nnn4C)c3C)cc3ccsc23)C1 [Example 70, (3S)-3-(1,4-Dimethyl-1H-benzotriazol-5-yl)-3-(7-{[(6S)-6-ethyl-5,6,7,9-tetrahydro-8H-pyrido[2,3-c]azepin-8-yl]methyl}-1-benzothiophen-5-yl)propanoic acid]
- pIC50 [1]: ≥ 8.00
- fold induction at 0.4 µM [2]: > 5

Structure (SMILES): Cc1c(C(CC(=O)O)c2cc(CN3Cc4nc(N)ccc4OC4(CC4)C3)c3sccc3c2)cnc2c1nnn2C (centres unmarked) [Example 71, 3-{7-[(7′-Amino-3′H-spiro[cyclopropane-1,2′-pyrido[2,3-f][1,4]oxazepin]-4′ (5′H)-yl)methyl]-1-benzothiophen-5-yl}-3-(3,7-dimethyl-3H-[1,2,3]triazolo[4,5-b]pyridin-6-yl)propanoic acid]
- pIC50 [1]: 7.52 to 8.00
- fold induction at 0.4 µM [2]: > 5

Structure (SMILES): CC[C@H]1Cc2ccc(O)nc2CN(Cc2cc([C@@H](CC(=O)O)c3ccc4c(nnn4C)c3C)cc3ccsc23)C1 [Example 72, (3R)-3-(1,4-Dimethyl-1H-benzotriazol-5-yl)-3-(7-{[(6S)-6-ethyl-2-hydroxy-5,6,7,9-tetrahydro-8H-pyrido[2,3-c]azepin-8-yl]methyl}-1-benzothiophen-5-yl)propanoic acid]
- pIC50 [1]: 6.52 to 7.52
- fold induction at 0.4 µM [2]: > 5

Structure (SMILES): CC[C@H]1Cc2ccc(O)nc2CN(Cc2cc([C@H](CC(=O)O)c3ccc4c(nnn4C)c3C)cc3ccsc23)C1 [Example 73, (3S)-3-(1,4-Dimethyl-1H-benzotriazol-5-yl)-3-(7-{[(6S)-6-ethyl-2-hydroxy-5,6,7,9-tetrahydro-8H-pyrido[2,3-c]azepin-8-yl]methyl}-1-benzothiophen-5-yl)propanoic acid]
- pIC50 [1]: 7.52 to 8.00
- fold induction at 0.4 µM [2]: > 5

Structure (SMILES): CC[C@@H]1CN(Cc2cc(C(CC(=O)O)c3ccc4c(nnn4C)c3C)cc3ccsc23)Cc2nc(F)c(O)cc2O1 (stereo partly drawn) [Example 74, 3-(1,4-Dimethyl-1H-benzotriazol-5-yl)-3-(7-{[(2R)-2-ethyl-7-fluoro-8-hydroxy-2,3-dihydropyrido[2,3-f][1,4]oxazepin-4(5H)-yl]methyl}-1-benzothiophen-5-yl)propanoic acid]
- pIC50 [1]: 7.52 to 8.00
- fold induction at 0.4 µM [2]: > 5

Structure (SMILES): CC[C@H]1Cc2cccnc2CN(Cc2cc([C@@H](CC(=O)O)c3cnc4c(nnn4C)c3C)cc3ccsc23)C1 [Example 75, (3R)-3-(3,7-Dimethyl-3H-[1,2,3]triazolo[4,5-b]pyridin-6-yl)-3-(7-{[(6S)-6-ethyl-5,6,7,9-tetrahydro-8H-pyrido[2,3-c]azepin-8-yl]methyl}-1-benzothiophen-5-yl)propanoic acid]
- pIC50 [1]: 7.52 to 8.00
- fold induction at 0.4 µM [2]: > 5

Structure (SMILES): CC[C@H]1Cc2cccnc2CN(Cc2cc([C@H](CC(=O)O)c3cnc4c(nnn4C)c3C)cc3ccsc23)C1 [Example 76, (3S)-3-(3,7-Dimethyl-3H-[1,2,3]triazolo[4,5-b]pyridin-6-yl)-3-(7-{[(6S)-6-ethyl-5,6,7,9-tetrahydro-8H-pyrido[2,3-c]azepin-8-yl]methyl}-1-benzothiophen-5-yl)propanoic acid]
- pIC50 [1]: 7.52 to 8.00
- fold induction at 0.4 µM [2]: > 5

Structure (SMILES): CC[C@@H]1CN(Cc2cc([C@@H](CC(=O)O)c3ccc4c(nnn4C)c3C)cc3ccsc23)Cc2nc(NC)ccc2O1 [Example 77, (3R)-3-(1,4-Dimethyl-1H-benzotriazol-5-yl)-3-(7-{[(2R)-2-ethyl-7-(methylamino)-2,3-dihydropyrido[2,3-f][1,4]oxazepin-4(5H)-yl]methyl}-1-benzothiophen-5-yl)propanoic acid]
- pIC50 [1]: ≥ 8.00
- fold induction at 0.4 µM [2]: > 5

Structure (SMILES): CC[C@@H]1CN(Cc2cc([C@H](CC(=O)O)c3ccc4c(nnn4C)c3C)cc3ccsc23)Cc2nc(NC)ccc2O1 [Example 78, (3S)-3-(1,4-Dimethyl-1H-benzotriazol-5-yl)-3-(7-{[(2R)-2-ethyl-7-(methylamino)-2,3-dihydropyrido[2,3-f][1,4]oxazepin-4(5H)-yl]methyl}-1-benzothiophen-5-yl)propanoic acid]
- pIC50 [1]: ≥ 8.00
- fold induction at 0.4 µM [2]: 3 to 5

Structure (SMILES): Cc1c([C@@H](CC(=O)O)c2cc(CN3Cc4cnc(O)cc4OC4(CC4)C3)c3sccc3c2)ccc2c1nnn2C [Example 79, (3S)-3-(1,4-Dimethyl-1H-benzotriazol-5-yl)-3-{7-[(8′-hydroxy-3′H-spiro[cyclopropane-1,2′-pyrido[3,4-f][1,4]oxazepin]-4′ (5′H)-yl)methyl]-1-benzothiophen-5-yl}propanoic acid]
- pIC50 [1]: 7.52 to 8.00
- fold induction at 0.4 µM [2]: 3 to 5

Structure (SMILES): CC[C@H]1Cc2ccc(O)nc2CN(Cc2cc([C@@H](CC(=O)O)c3cnc4c(nnn4C)c3C)cc3ccsc23)C1 [Example 80, (3R)-3-(3,7-Dimethyl-3H-[1,2,3]triazolo[4,5-b]pyridin-6-yl)-3-(7-{[(6S)-6-ethyl-2-hydroxy-5,6,7,9-tetrahydro-8H-pyrido[2,3-c]azepin-8-yl]methyl}-1-benzothiophen-5-yl)propanoic acid]
- pIC50 [1]: 7.52 to 8.00
- fold induction at 0.4 µM [2]: > 5

Structure (SMILES): CC[C@H]1Cc2ccc(O)nc2CN(Cc2cc([C@H](CC(=O)O)c3cnc4c(nnn4C)c3C)cc3ccsc23)C1 [Example 81, (3S)-3-(3,7-Dimethyl-3H-[1,2,3]triazolo[4,5-b]pyridin-6-yl)-3-(7-{[(6S)-6-ethyl-2-hydroxy-5,6,7,9-tetrahydro-8H-pyrido[2,3-c]azepin-8-yl]methyl}-1-benzothiophen-5-yl)propanoic acid]
- pIC50 [1]: 7.52 to 8.00
- fold induction at 0.4 µM [2]: > 5

Structure (SMILES): Cc1c([C@@H](CC(=O)O)c2cc(CN3Cc4c(ccnc4O)OC4(CC4)C3)c3sccc3c2)ccc2c1nnn2C [Example 82, (3S)-3-(1,4-Dimethyl-1H-benzotriazol-5-yl)-3-{7-[(6′-hydroxy-3′H-spiro[cyclopropane-1,2′-pyrido[3,4-f][1,4]oxazepin]-4′(5′H)-yl)methyl]-1-benzothiophen-5-yl}propanoic acid]
- pIC50 [1]: 7.52 to 8.00
- fold induction at 0.4 µM [2]: 3 to 5

Structure (SMILES): CC[C@H]1Cc2ccc(N)nc2CN(Cc2cc([C@@H](CC(=O)O)c3ccc4c(nnn4C)c3C)cc3ccsc23)C1 [Example 83, (3R)-3-(7-{[(6S)-2-Amino-6-ethyl-5,6,7,9-tetrahydro-8H-pyrido[2,3-c]azepin-8-yl]methyl}-1-benzothiophen-5-yl)-3-(1,4-dimethyl-1H-benzotriazol-5-yl)propanoic acid]
- pIC50 [1]: ≥ 8.00
- fold induction at 0.4 µM [2]: > 5

Structure (SMILES): CC[C@H]1Cc2ccc(O)nc2CN(Cc2cc([C@H](CC(=O)O)c3ccc4c(nnn4C)c3Cl)cc3ccsc23)C1 [Example 84, (3S)-3-(4-Chloro-1-methyl-1H-benzotriazol-5-yl)-3-(7-{[(6S)-6-ethyl-2-hydroxy-5,6,7,9-tetrahydro-8H-pyrido[2,3-c]azepin-8-yl]methyl}-1-benzothiophen-5-yl)propanoic acid]
- pIC50 [1]: ≥ 8.00
- fold induction at 0.4 µM [2]: > 5
